Reference: patent US20240293405A1, “(1H-PYRROLO[2,3-B]PYRIDIN-1-YL)PYRIMIDIN-2-YL-AMINO-PHENYL-ACRYLAMIDE INHIBITORS OF EGFR FOR USE IN THE TREATMENT OF BRAIN TUMORS” (Dana-Farber Cancer Institute, Inc., priority 2021, published 2024)
Where “and” joins values, the source holds several entries; their conditions need not be identical. Equal values may be shown once. Entries after “also recorded” stand apart in the source; their conditions may differ. Read-outs that look alike come from different tables or passages of the source.

Experiments:
293-EGFRvIII cells = assay: Cell viability of 293-EGFRvIII cells (CellTiter-Glo); type: cell-based, human; conditions: for IC50: Homo sapiens, read-out: IC50, viability of 293-EGFRvIII cells
Procedure: Cells were seeded in 96-well plates at a density of 1,000 cells per well and treated with two-fold serial dilutions of compounds with a starting concentration of 20 μM. Cell viability was assessed after three days of treatment by CellTiter-Glo (Promega). Curve fitting analysis and IC50 value determination were performed using GraphPad Prism 8.

[1] = Brain and plasma exposure after 5 hour intravenous infusion; type: in vivo, Sprague Dawley rats; conditions: for Kp at 5 h / concentration at 5 h / concentration at 0.083 h / concentration at 1 h / concentration at 2 h / concentration at 3 h: 3 mg/kg
Procedure: A single IV infustion for 5 hours was administered to each animal, which were then twice observed clinically (30 minutes to 1 hour post-posing and at the end of the study (TTerminal). Blood samples were collected at 5 time points from each animal over the 5 hour infusion period (5 minutes, 1 hour, 2, hours, 3 hours and TTerminal) and processed to plasma. Brains were collected at Tterminal (blotted, weighed, and snap frozen) and brain exposure was compared. […]

[2] = tested on: 468 human kinases and disease relevant mutant variants; assay: Kinase selectivity binding panel (468 kinases); conditions: 468 kinase panel, 1 μM free base
Procedure: Compound 1 and Compound 2 (major metabolite) were evaluated in a panel of 468 human kinases and disease relevant mutant variants. Compound 1 and Compound 2 bound to few non-mutant kinases at <1% of control. […] While there is some variability between Compound 1 and Compound 2, it is clear that both compounds are very effective at binding to a large panel of mutant kinases. […] Binding constant to wild type EGFR was 4.9 nM.

[3] = Skin toxicity in mice (visual observation); type: in vivo; conditions: Compound 1 10-50 mg/kg/day vs osimertinib 10-25 mg/kg/day
Description: . (osmertinib, FIG. 6A; Compound 1, FIG. 6B).

[4] = H1975 SQ lung tumor xenograft in NOD.SCID mice; type: in vivo; conditions: NOD.SCID, mouse, plasma; H1975 model, 4 hours post-dose, oral; read-out: plasma concentration at which anti-tumor activity was noted
Procedure: (§1) Compound 1 was also evaluated in xenograft models of lung tumor cell lines harboring EGFR single and double mutations in the mouse.

[5] = tested on: H1975 cells: EGFR L858R-T790M; assay: H1975 SQ lung tumor xenograft in NOD.SCID mice; type: in vivo; conditions: H1975 lung tumor implants, oral
Procedure: as §1

Respiratory rate = type: in vivo; conditions: dog, PO up to 100 mg/kg
Caco-2 cells = assay: Permeation and absorption in Caco-2 cells; type: in vitro ADME
Description: Further understanding of DDI risk will await definition of Phase 2 doses and exposures.

[6] = Oral dog dose-range toxicity study; type: in vivo
Procedure: In the dog dose-range study, Compound 1 was given to male and female beagle dogs orally by gavage either once (30, 100, 600, 1000 mg/kg) or once daily for 14 days (30, 100, 300 mg/kg/day).
The HNSTD was estimated to be 100 mg/kg/day in this study.

[7] = tested on: NCI-H1975 cells (EGFR L858R/T790M mutation); assay: Cell viability assay, NCI-H1975 (CellTiter-Glo); type: cell-based; conditions: Homo sapiens; NCI-H1975, 72 hours; read-out: IC50, cell viability
Description: CellTier-Glo (Promega) assay kit (https://www.promega.com/resources/protocols/technical-bulletins/0/celltiter-glo-luminescentcell-viability-assay-protocol/) was used here.

[8] = Brain and plasma exposure after single oral dose; type: in vivo, Sprague Dawley rats; conditions: Compound 1 30 mg/kg PO, 30 mg/kg; for concentration at 7 h / Kp at 7 h / concentration at 3 h: Sprague Dawley, rat, po; for Kp at 7 h: read-out: Brain/Plasma (ratios)
BT112 cells = assay: Cell viability, patient-derived GBM line BT112; conditions: Homo sapiens, 72 h
Procedure: Primary human glioblastoma lines BT112, BT179 and BT333 were maintained in NeuroCult proliferation medium (human) (StemCell Technologies) with 20 ng/ml EGF, 10 ng/ml FGF and 0.0002% Heparin.

[9] = 3 mg/kg IV infusion over 5 h, 5 h, individual animal, Compound 2 as metabolite in Compound 1-dosed rats
[10] = Sprague Dawley, rat, brain, other: continuous intravenous infusion and oral dosing, rat, estimated steady state by continuous intravenous infusion and oral dosing, read-out: whole brain exposure relative to plasma

C=CC(=O)Nc1cc(Nc2nccc(-n3ccc4cccnc43)n2)c(OC)cc1N(C)CCN(C)C [Compound 1, N-(5-((4-(1H-pyrrolo[2,3-b]pyridin-1-yl)pyrimidin-2-yl)amino)-2-((2-(dimethylamino)ethyl)(methyl)amino)-4-methoxyphenyl)acrylamide]
fold more active than erlotinib (viability) (293-EGFRvIII cells; HEK293-EGFRvIII cells): 3 fold
fold more active than gefitinib (viability) (293-EGFRvIII cells; HEK293-EGFRvIII cells): 10 fold
IC50 (293-EGFRvIII cells; 72 h, 3 days treatment, CellTiter-Glo): 1480 nM
IC50 (293-EGFRvIII cells; unit as printed in b643 for Compound 1): 1480 nM
Plasma Concentration ([1]; 3 mg/kg IV infusion over 5 h, 0.083 h, individual animal, Compound 2 as metabolite in Compound 1-dosed rats): 14.2 ng/mL and 13.5 ng/mL and 12.8 ng/mL and 13.1 ng/mL and 11.3 ng/mL and 14.3 ng/mL
Plasma Concentration ([1]; 3 mg/kg IV infusion over 5 h, 1 h, individual animal, Compound 2 as metabolite in Compound 1-dosed rats): 63.5 ng/mL and 54.8 ng/mL and 59.6 ng/mL and 44.2 ng/mL and 51.1 ng/mL and 63.0 ng/mL
Plasma Concentration ([1]; 3 mg/kg IV infusion over 5 h, 2 h, individual animal, Compound 2 as metabolite in Compound 1-dosed rats): 93.4 ng/mL and 84.2 ng/mL and 81.6 ng/mL and 70.7 ng/mL and 71.9 ng/mL and 70.1 ng/mL
Plasma Concentration ([1]; 3 mg/kg IV infusion over 5 h, 3 h, individual animal, Compound 2 as metabolite in Compound 1-dosed rats): 95.5 ng/mL and 93.7 ng/mL and 106 ng/mL and 89.5 ng/mL and 94.7 ng/mL and 120 ng/mL
Brain Tissue Concentration [1, 9]: 2380 ng/g and 2400 ng/g and 2020 ng/g and 2000 ng/g and 1980 ng/g and 2640 ng/g
Brain/Plasma (ratios) [1, 9]: 18.5 and 20.5 and 18.2
Plasma Concentration [1, 9]: 107 ng/mL and 120 ng/mL and 109 ng/mL and 97.4 ng/mL and 119 ng/mL
Kp at 5 h [1, 10]: > 20
Kp [1, 10]: 20
concentration at 5 h ([1]; male, Sprague Dawley, rat, brain, intravenous, 3 mg/kg IV infusion over 5 h, 5 h, individual animal, Compound 2 as metabolite in Compound 1-dosed rats, read-out: Brain Tissue Concentration): 2640 ng/g
concentration at 5 h ([1]; male, Sprague Dawley, rat, brain, intravenous, 3 mg/kg IV infusion over 5 h, 5 h, mean n=6, Compound 2 as metabolite, read-out: Brain Tissue Concentration): 2240 ng/g
Kp at 5 h ([1]; male, Sprague Dawley, rat, brain, intravenous, rats with continuous infusion, read-out: brain/plasma ratio): ~20
Kp at 5 h ([1]; male, Sprague Dawley, rat, brain, iv, 3 mg/kg IV infusion over 5 h, 5 h, individual animal, Compound 2 as metabolite in Compound 1-dosed rats, read-out: Brain/Plasma (ratios)): 22.2
Kp at 5 h ([1]; male, Sprague Dawley, rat, brain, iv, 3 mg/kg IV infusion over 5 h, 5 h, mean n=6, Compound 2 as metabolite, read-out: Brain/Plasma (ratios)): 20.3
concentration at 0.083 h ([1]; male, Sprague Dawley, rat, plasma, intravenous, 3 mg/kg IV infusion over 5 h, 0.083 h, individual animal, Compound 2 as metabolite in Compound 1-dosed rats): 14.3 ng/mL
concentration at 0.083 h ([1]; male, Sprague Dawley, rat, plasma, intravenous, 3 mg/kg IV infusion over 5 h, 0.083 h, mean n=6, Compound 2 as metabolite): 13.2 ng/mL
concentration at 1 h ([1]; male, Sprague Dawley, rat, plasma, intravenous, 3 mg/kg IV infusion over 5 h, 1 h, individual animal, Compound 2 as metabolite in Compound 1-dosed rats): 63 ng/mL
concentration at 1 h ([1]; male, Sprague Dawley, rat, plasma, intravenous, 3 mg/kg IV infusion over 5 h, 1 h, mean n=6, Compound 2 as metabolite): 56 ng/mL
concentration at 2 h ([1]; male, Sprague Dawley, rat, plasma, intravenous, 3 mg/kg IV infusion over 5 h, 2 h, individual animal, Compound 2 as metabolite in Compound 1-dosed rats): 70.1 ng/mL
concentration at 2 h ([1]; male, Sprague Dawley, rat, plasma, intravenous, 3 mg/kg IV infusion over 5 h, 2 h, mean n=6, Compound 2 as metabolite): 78.7 ng/mL
concentration at 3 h ([1]; male, Sprague Dawley, rat, plasma, intravenous, 3 mg/kg IV infusion over 5 h, 3 h, individual animal, Compound 2 as metabolite in Compound 1-dosed rats): 120 ng/mL
concentration at 3 h ([1]; male, Sprague Dawley, rat, plasma, intravenous, 3 mg/kg IV infusion over 5 h, 3 h, mean n=6, Compound 2 as metabolite): 99.9 ng/mL
concentration at 5 h ([1]; male, Sprague Dawley, rat, plasma, intravenous, 3 mg/kg IV infusion over 5 h, 5 h, individual animal, Compound 2 as metabolite in Compound 1-dosed rats, read-out: Plasma Concentration): 119 ng/mL
concentration at 5 h ([1]; male, Sprague Dawley, rat, plasma, intravenous, 3 mg/kg IV infusion over 5 h, 5 h, mean n=6, Compound 2 as metabolite, read-out: Plasma Concentration): 110 ng/mL
Brain Penetration (% of B/P ratio in preclinical model) ([1]; own data, infusion in rats): 2000% (infusion)
targeted non-mutant kinases (bound at <1% of control) [2]: MAST1, PAK4, PDGFRB and ULK3
skin toxicity (visual observation) [3]: Lower Skin Toxicity than Osimertinib
concentration at 4 h [4]: 800 ng/mL and 1.6 µM
tumor response [5]: substantial tumor regression
effects on respiratory rate (Respiratory rate): no adverse effects on respiratory rate
permeability in Caco-2 cells (Caco-2 cells): Moderate permeability
substrate of efflux transporters (Caco-2 cells): not likely a transporter substrate; also recorded: not likely a substrate of efflux transporters; also recorded: not a likely substrate of efflux transporters
substrate of efflux transporters (Caco-2 cells; listed as Compound 11): unlikely that Compound 11 is a substrate of efflux transporters; also recorded: not a substrate
tolerability of a single oral dose ([6]; 30 to 1000 mg/kg): well tolerated
HNSTD ([6]; 14 days oral, estimated): 100 mg/kg/day
IC50 [7]: 34.4 nM
Plasma Concentration ([8]; 3 hr, individual animal): 181 ng/mL and 229 ng/mL and 273 ng/mL
Brain Tissue Concentration ([8]; 7 hr, individual animal): 8280 ng/g and 5210 ng/g and 7400 ng/g
Brain/Plasma (ratios) ([8]; 7 hr, individual animal): 31.2 and 26.4
Plasma Concentration ([8]; 7 hr, individual animal): 265 ng/mL and 197 ng/mL and 275 ng/mL
concentration at 7 h ([8]; brain, 7 hr, individual animal, read-out: Brain Tissue Concentration): 7400 ng/g
Kp at 7 h ([8]; brain, 7 hr, individual animal): 26.9
concentration at 7 h ([8]; brain, 7 hr, mean n=3, read-out: Brain Tissue Concentration): 6960 ng/g
Kp at 7 h ([8]; brain, 7 hr, mean n=3): 28.3
concentration at 3 h ([8]; plasma, 3 hr, individual animal): 273 ng/mL
concentration at 3 h ([8]; plasma, 3 hr, mean n=3): 228 ng/mL
concentration at 7 h ([8]; plasma, 7 hr, individual animal, read-out: Plasma Concentration): 275 ng/mL
concentration at 7 h ([8]; plasma, 7 hr, mean n=3, read-out: Plasma Concentration): 246 ng/mL
IC50 (BT112 cells): 2040 nM
